From PMC4674063, “Uncovering the Molecular Mechanism of Actions between Pharmaceuticals and Proteins on the AD Network” (PLoS ONE, 2015)
Like-named read-outs stand apart in the source and are kept apart here.

Key:
NEP = NEP (Homo sapiens, UniProt P08473); experiment: Wet-lab test of inhibition of NEP; type: biochemical; parameters: inhibition rate / quenching efficiency: concentration or dose not given beside the values
IDE = molecular target: T1, IDE (Homo sapiens, UniProt P14735); experiment: Wet-lab test of inhibition of IDE; type: biochemical; settings: for inhibition rate / quenching efficiency / IC50: binding to IDE; for IC50: computed value
T1 sequence (P14735 1-1019): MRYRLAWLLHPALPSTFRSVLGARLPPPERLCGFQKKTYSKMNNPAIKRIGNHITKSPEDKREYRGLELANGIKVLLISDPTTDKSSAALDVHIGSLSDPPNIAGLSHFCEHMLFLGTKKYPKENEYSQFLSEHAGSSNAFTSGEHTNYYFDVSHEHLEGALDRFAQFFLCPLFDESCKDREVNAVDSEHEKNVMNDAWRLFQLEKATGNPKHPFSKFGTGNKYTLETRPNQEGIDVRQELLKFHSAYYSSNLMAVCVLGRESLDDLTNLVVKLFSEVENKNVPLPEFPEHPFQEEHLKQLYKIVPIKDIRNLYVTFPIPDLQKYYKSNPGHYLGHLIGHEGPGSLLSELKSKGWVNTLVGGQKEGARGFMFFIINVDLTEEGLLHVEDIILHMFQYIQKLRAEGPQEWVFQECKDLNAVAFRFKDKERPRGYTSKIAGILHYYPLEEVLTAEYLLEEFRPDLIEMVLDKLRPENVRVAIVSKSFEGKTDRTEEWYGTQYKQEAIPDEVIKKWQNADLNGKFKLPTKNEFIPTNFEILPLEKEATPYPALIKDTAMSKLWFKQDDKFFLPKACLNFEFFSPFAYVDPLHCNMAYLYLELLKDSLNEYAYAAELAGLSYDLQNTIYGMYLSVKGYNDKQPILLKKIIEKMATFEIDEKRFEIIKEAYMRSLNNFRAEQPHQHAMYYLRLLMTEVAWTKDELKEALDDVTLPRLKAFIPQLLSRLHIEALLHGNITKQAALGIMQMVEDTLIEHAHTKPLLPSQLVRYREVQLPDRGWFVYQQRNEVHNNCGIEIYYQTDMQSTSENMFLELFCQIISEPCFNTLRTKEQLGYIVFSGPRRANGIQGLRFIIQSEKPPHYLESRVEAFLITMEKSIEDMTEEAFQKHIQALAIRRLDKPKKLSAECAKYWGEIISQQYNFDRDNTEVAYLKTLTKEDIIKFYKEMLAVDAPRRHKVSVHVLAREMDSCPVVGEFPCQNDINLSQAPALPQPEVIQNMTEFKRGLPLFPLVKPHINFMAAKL

[1] = cited from earlier work
[2] = conclusion from both amiloride analogs

Chain of NEP (P08473 whole entry): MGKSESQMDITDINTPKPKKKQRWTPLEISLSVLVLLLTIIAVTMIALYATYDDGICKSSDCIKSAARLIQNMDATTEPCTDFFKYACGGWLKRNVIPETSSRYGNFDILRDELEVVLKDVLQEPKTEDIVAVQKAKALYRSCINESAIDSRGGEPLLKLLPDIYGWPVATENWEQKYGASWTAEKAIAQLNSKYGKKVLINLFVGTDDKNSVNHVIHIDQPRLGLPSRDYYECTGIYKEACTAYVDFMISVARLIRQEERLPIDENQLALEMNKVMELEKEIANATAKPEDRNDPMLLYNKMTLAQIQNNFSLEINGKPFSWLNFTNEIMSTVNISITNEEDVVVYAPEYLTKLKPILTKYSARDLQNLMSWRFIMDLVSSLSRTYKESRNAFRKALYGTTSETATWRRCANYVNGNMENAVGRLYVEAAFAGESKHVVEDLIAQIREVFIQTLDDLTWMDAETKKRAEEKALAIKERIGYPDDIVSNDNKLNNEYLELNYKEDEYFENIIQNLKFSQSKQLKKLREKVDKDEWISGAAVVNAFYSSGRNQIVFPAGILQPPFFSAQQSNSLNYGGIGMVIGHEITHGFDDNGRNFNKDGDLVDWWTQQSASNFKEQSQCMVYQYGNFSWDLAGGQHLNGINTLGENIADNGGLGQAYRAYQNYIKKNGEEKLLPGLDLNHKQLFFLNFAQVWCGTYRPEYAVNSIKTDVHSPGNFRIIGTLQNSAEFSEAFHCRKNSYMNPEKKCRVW

**Q.** With `O=C(O)CNC(=O)C(CS)Cc1ccccc1` (racemic) [DL-Thiophan] as the molecule, how does the inhibition rate (NEP; binding to NEP) read?
**A.** The inhibition rate was 102.01%.

**Q.** For `CN(C)c1nc(N)c(C(=O)N=C(N)N)nc1Cl.Cl` [5-(N,N-Dimethyl) amiloride hydrochloride], which inhibition rate (IDE) is on record?
**A.** Its inhibition rate is 93.57%.

**Q.** What about the quenching efficiency (IDE) of the same molecule?
**A.** Its quenching efficiency is 54.77%.

**Q.** What about the IC50 (IDE) of the same molecule?
**A.** The IC50 was 178 µM.

**Q.** And the inhibition rate (NEP; binding to NEP)?
**A.** The inhibition rate was 80.96%.

**Q.** What about the quenching efficiency (NEP; binding to NEP) of the same molecule?
**A.** Its quenching efficiency is 54.77%.

**Q.** What about the IC50 (NEP; binding to NEP, computed value) of the same molecule?
**A.** Its IC50 is 829 µM.

**Q.** For `N=C(N)NC(=O)c1nc(Cl)c(N)nc1N` [AMR, Amiloride], which “inhibition of IDE (in words)” value (IDE; [2]) is on record?
**A.** The value was “strongly inhibits IDE”.

**Q.** What about the “inhibition of NEP (in words)” value (NEP; [2]) of the same molecule?
**A.** Its value is “weakly inhibits NEP”.

**Q.** With `Cl.N=C(N)NC(=O)c1nc(Cl)c(N)nc1N.O.O` [Amiloride HCl dihydrate] as the molecule, how does the inhibition rate (IDE) read?
**A.** Its inhibition rate is 95.02%.

**Q.** And the quenching efficiency (IDE)?
**A.** The quenching efficiency was -6.64%.

**Q.** What about the IC50 (IDE) of the same molecule?
**A.** Its IC50 is 214 µM.

**Q.** And the inhibition rate (NEP; binding to NEP)?
**A.** Its inhibition rate is 65.21%.

**Q.** What about the quenching efficiency (NEP; binding to NEP) of the same molecule?
**A.** Its quenching efficiency is -6.64%.

**Q.** With `COc1ccc2c3c1O[C@H]1C[C@@H](O)C=C[C@@]31CCN(C)C2` [GNT, galantamine] as the molecule, how does the “crosses the blood-brain barrier (BBB)” value [1] read?
**A.** Its value is “cross the blood-brain barrier”.

**Q.** For `C/C=C1\[C@H]2C=C(C)C[C@]1(N)c1ccc(=O)[nH]c1C2` [HUP, Huperzine A], which “crosses the blood-brain barrier (BBB)” value ([1]; in vivo) is on record?
**A.** The value was “cross the blood-brain barrier”.

**Q.** For `OCCN1C[C@H](O)[C@@H](O)[C@H](O)[C@H]1CO` [MIG, Miglitol], which “crosses the BBB” value ([1]; ref not given) is on record?
**A.** The value was “cannot cross BBB”.

**Q.** Which “crosses the BBB” value [1] does the source give for `NC(=O)C1=CN([C@@H]2O[C@H](COP(=O)(O)OP(=O)(O)OC[C@H]3O[C@@H](n4cnc5c(N)ncnc54)[C@H](O)[C@@H]3O)[C@@H](O)[C@H]2O)C=CC1` [NAI, NADH] here?
**A.** Its value is “cross the BBB”.

**Q.** Which “crosses the blood-brain barrier (BBB)” value ([1]; in vivo) does the source give for `Nc1c2c(nc3ccccc13)CCCC2` [THA, tacrine] here?
**A.** Its value is “cross the blood-brain barrier”.

**Q.** For `Cc1c(C)c2c(c(C)c1O)CC[C@@](C)(CCC[C@H](C)CCC[C@H](C)CCCC(C)C)O2` [VIV, Vitamin E], which “crosses the BBB” value [1] is on record?
**A.** The value was “cross the BBB”.
